Results: ChEMBL document CHEMBL4190272, “Norditerpenoids and Dinorditerpenoids from the Seeds of Podocarpus nagi as Cytotoxic Agents and Autophagy Inducers” (J Nat Prod, 2017)
Active and inactive are the calls of the source. The calls are words filed in the database; no cut-off is given here.

Tests used:
HEY [1] = assay: Cytotoxicity against human HEY cells after 48 hrs by MTT assay; format: functional, cell-based
A2780 [2] = settings: Homo sapiens
Description: (§1) Cytotoxicity against human A2780 cells after 48 hrs by MTT assay

A2780 [3] = assay: Cytotoxicity against human A2780 cells up to 10 uM after 48 hrs by MTT assay; format: functional, cell-based
HEY [4] = assay: Cytotoxicity against human HEY cells up to 10 uM after 48 hrs by MTT assay; format: functional, cell-based
A2780 [5] = assay: Induction of autophagy in human A2780 cells assessed as increase in LC3-2 expression by Western blot analysis; format: functional, cell-based
HEY [6] = assay: Induction of autophagy in human HEY cells assessed as increase in LC3-2 expression by Western blot analysis; format: functional, cell-based
A2780 [7] = assay: cells; settings: Homo sapiens, A2780, 48 h
Description: as §1

A2780 [8] = assay: Induction of autophagy in human A2780 cells assessed as increase in LC3-2 expression up to 10 uM after 24 hrs by Western blot analysis; format: functional, cell-based
HEY [9] = assay: Induction of autophagy in human HEY cells assessed as increase in LC3-2 expression up to 10 uM after 24 hrs by Western blot analysis; format: functional, cell-based
A2780 [10] = assay: Induction of autophagy in human A2780 cells expressing mRFP-GFP-LC3 plasmid assessed as increase in LC3 punctum formation at 10 uM after 24 hrs by confocal microscopic analysis; format: functional, cell-based
[11] = molecular target: T1, c-Jun N-terminal kinase, JNK (Homo sapiens) (UniProt P45983+P53779+P45984); assay: Activation of JNK phosphorylation in human A2780 cells up to 10 uM after 24 hrs by Western blot analysis; format: cell-based
[12] = molecular target: T1, c-Jun N-terminal kinase, JNK (Homo sapiens); assay: Activation of JNK in human A2780 cells assessed as increase in c-jun expression up to 10 uM after 24 hrs by Western blot analysis; format: cell-based
[13] = molecular target: T1, c-Jun N-terminal kinase, JNK (Homo sapiens); assay: Activation of JNK in human A2780 cells assessed as increase in phosphorylated c-jun expression up to 10 uM after 24 hrs in presence of JNK/c-Jun pathway inhibitor SP600125 by Western blot analysis; format: cell-based
[14] = molecular target: T1, c-Jun N-terminal kinase, JNK (Homo sapiens); assay: Activation of JNK in human A2780 cells assessed as increase in phosphorylated c-jun expression up to 10 uM after 24 hrs by Western blot analysis; format: cell-based
[15] = molecular target: T1, c-Jun N-terminal kinase, JNK (Homo sapiens); assay: Activation of JNK phosphorylation in human A2780 cells up to 10 uM after 24 hrs in presence of JNK/c-Jun pathway inhibitor SP600125 by Western blot analysis; format: cell-based
A2780 [16] = assay: Induction of autophagy in human A2780 cells assessed as increase in LC3-2 expression in presence of JNK/c-Jun pathway inhibitor SP600125 by Western blot analysis; format: functional, cell-based

SMILES | Activity (HEY [1]) | Activity (A2780 [2]) | Activity (A2780 [3]) | Activity (HEY [4]) | also measured
CC(C)c1oc(=O)cc2c1[C@@H](O)[C@H]1OC(=O)[C@@]3(C)C[C@@H](O)C[C@@]2(C)[C@@H]13 | Active | Active | – | – | –
CCc1oc(=O)cc2c1[C@@H](O)[C@H]1OC(=O)[C@@]3(C)[C@@H](O)[C@H]4O[C@H]4[C@@]2(C)[C@@H]13 | – | – | inactive | inactive | –
CC(C)c1oc(=O)cc2c1[C@@H](O)[C@H]1OC(=O)[C@@]3(C)CC[C@@H](O)[C@@]2(C)[C@@H]13 | Active | Active | – | – | –
CC(C)c1oc(=O)cc2c1[C@@H](O)[C@H]1OC(=O)[C@@]3(C)C[C@@H](O)[C@@H](O)[C@@]2(C)[C@@H]13 | Active | Active | – | – | –
CC(O)c1oc(=O)cc2c1C[C@H]1OC(=O)[C@@]3(C)[C@H](O)[C@H]4O[C@H]4[C@@]2(C)[C@@H]13 (some centres not stated) | – | – | inactive | inactive | –
CC(C)c1oc(=O)cc2c1[C@@H](O)[C@H]1OC(=O)[C@@]3(C)CC(=O)[C@@H](O)[C@@]2(C)[C@@H]13 | – | – | inactive | inactive | –
CC(O)c1oc(=O)cc2c1C[C@H]1OC(=O)[C@@]3(C)[C@@H](O)[C@@H](O)[C@H](Cl)[C@@]2(C)[C@@H]13 (some centres not stated) | – | – | inactive | inactive | –
CC(O)c1oc(=O)cc2c1C[C@H]1OC(=O)[C@@]3(C)CC[C@@H](O)[C@@]2(C)[C@@H]13 (some centres not stated) | – | – | inactive | inactive | –
CC(C)c1oc(=O)cc2c1[C@@H](O)[C@H]1OC(=O)[C@@]3(C)[C@@H](O)[C@H]4O[C@H]4[C@@]2(C)[C@@H]13 | Active | Active | – | – | –
CCc1oc(=O)cc2c1C[C@H]1OC(=O)[C@@]3(C)[C@@H](O)[C@H]4O[C@H]4[C@@]2(C)[C@@H]13 | Active | Active | – | – | –
CCc1oc(=O)cc2c1C[C@H]1OC(=O)[C@@]3(C)[C@H](O)[C@H]4O[C@H]4[C@@]2(C)[C@@H]13 | Active | Active | – | – | Activity (A2780 [5]): Active; Activity (HEY [6]): Active
CC(=O)O[C@H]1C(=O)[C@@]2(C)[C@H]([C@H](OC(=O)c3ccccc3)[C@]3(O)C[C@H](OC(=O)[C@H](O)[C@@H](NC(=O)c4ccccc4)c4ccccc4)C(C)=C1C3(C)C)[C@]1(OC(C)=O)CO[C@@H]1C[C@@H]2O [PACLITAXEL] | – | – | – | – | IC50 (HEY [1]): 104 nM; IC50 (A2780 [7]): 164 nM
CCc1oc(=O)cc2c1C[C@H]1OC(=O)[C@@]3(C)CC[C@@H](O)[C@@]2(C)[C@@H]13 | – | – | – | – | IC50 (HEY [1]): 6400 nM; IC50 (A2780 [7]): 3800 nM
CCc1oc(=O)cc2c1C[C@H]1OC(=O)[C@@]3(C)[C@@H](O)C[C@@H](O)[C@@]2(C)[C@@H]13 | – | – | inactive | inactive | –
CCc1oc(=O)cc2c1C[C@H]1OC(=O)[C@@]3(C)C[C@@H](O)[C@@H](O)[C@@]2(C)[C@@H]13 | – | – | – | – | IC50 (HEY [1]): < 2500 nM; Activity (A2780 [8]): Active; Activity (HEY [9]): Active; Activity (A2780 [10]): Active; Activity [11]: Active; Activity [12]: Active; Activity [13]: inactive; Activity [14]: Active; Activity [15]: inactive; Activity (A2780 [16]): inactive; Activity (A2780 [5]): Active; Activity (HEY [6]): Active; IC50 (A2780 [7]): < 2500 nM
CCc1oc(=O)cc2c1C[C@H]1OC(=O)[C@@]3(C)[C@@H](O)[C@@H](O)[C@H](O)[C@@]2(C)[C@@H]13 | – | – | inactive | inactive | –
CC(C)[C@H]1OC(=O)C=C2[C@@]13O[C@@H]3[C@H]1OC(=O)[C@@]3(C)CCC[C@@]2(C)[C@@H]13 | Active | Active | – | – | –
